Assay results taken from patent US20040242489A1, “Method for improving stability of a bone-connecting implant” (priority 2001, published 2004).

Legend:
[1] = tested on: knee prosthesis in patients; conditions: administered orally to patients undergoing total knee replacement; cited from earlier work
[2] = tested on: bone-connecting implant in a human; experiment: Displacement or migration of implant by radiosterometric analysis (RSA) in patients treated with PTH; type: in vivo
Source text: For example, in Hilding, M. et al., Acta Orthopaedica Scandinavica 71:553-557 (2000), several 0.8 mm tantalum markers were positioned in both the proximal tibia and the plastic insert during total knee replacement surgeries. The positions of the markers were followed by radiographs taken one day, six weeks, six months and one year following the operation as a means to monitor postoperative implant shifting. Other techniques for measuring or evaluating the stability of bone-connecting implants are known to those skilled in the art and may be applied to the present invention.
The displacement or migration of the implanted artificial hip is measured over a 6-month period using radiosterometric analysis (RSA) as described in Hilding et al., supra.
The displacement or migration of the implanted artificial hip is measured over a 9-month period using radiosterometric analysis (RSA) as described in Hilding et al., supra.
The displacement or migration of the implanted tibia is measured over a 4-month period using radiosterometric analysis (RSA) as described in Hilding et al., supra.
The displacement or migration of the implanted artificial knee is measured over a 12-month period using radiosterometric analysis (RSA) as described in Hilding et al., supra.

[3] = tested on: humans suffering from osteoporosis; conditions: cited from earlier work
[4] = tested on: rats, titanium bone chamber; conditions: 15-240 μg/kg/day for six weeks; cited from earlier work
[5] = tested on: rats, stainless steel screw; conditions: 60 μg/kg/day for four weeks; cited from earlier work

Row | Compound | prosthetic migration [1] | likelihood of reoperation ([2]; Example 1: person, osteoporosis, artificial hip, regimen of Table 1) | likelihood of reoperation ([2]; Example 2: person, osteoarthritis, artificial hip, regimen of Table 2) | likelihood of reoperation ([2]; Example 3: person, tibia replacement, regimen of Table 3) | likelihood of reoperation ([2]; Example 4: person, knee replacement, regimen of Table 4) | likelihood of reoperation ([2]; Example 5: person, artificial hip, regimen of Table 5) | fractures [3] | spinal bone mineral content [3] | new bone formation [4] | fixation of a stainless steel screw [5]
1 | O=P(O)(O)C(Cl)(Cl)P(=O)(O)O [Clodronate] | appeared to reduce prosthetic migration |  |  |  |  |  |  |  |  | 
2 | PTH(1-34): The N-terminal 34 amino acids of human PTH (parathyroid hormone); PTH utilized in Examples 1-5 (SVSEIQLMHNLGKHLNSMERVEWLRKKLQDVHNF; Parathyroid hormone; UniProt P01270 32-65, looked up, fragment) |  | reduce the likelihood of reoperation | reduce the likelihood of reoperation | reduce the likelihood of reoperation | reduce the likelihood of a reoperation | reduce the likelihood of reoperation | reduce fractures | increase spinal bone mineral content | enhances new bone formation | enhances fixation of a stainless steel screw
